Reference: article PMC10447463, “Data-mining unveils structure–property–activity correlation of viral infectivity enhancing self-assembling peptides” (Nature Communications, 2023)
Like-named read-outs stand apart in the source and are kept apart here.

Key:
[1] = Turbidity, derived count rate of scattered light; format: physicochemical; settings: for Count Rate / kcps: derived count rate of scattered light at 633 nm, 173°, from zeta-potential measurement, 0.1 mg/mL in 1 mM KCl after 1 d at 1 mg/mL in PBS, turbidity / microscopic aggregation, mean of triplicate
Procedure, shortened: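 One-day room-temperature aggregation at 1 mg/mL in PBS (pH 7.4) preceded measurement; samples then went into 1 mM KCl. Triplicates per sample, two independent experiments averaged.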

[2] = Turbidity, derived count rate of scattered light; format: physicochemical; settings: for Count Rate: derived count rate of scattered light (turbidity); for Log10 Count Rate: turbidity, derived count rate of scattered light, data of Figure 2D
[3] = test system: HIV-1 infection of TZM-bl cells; experiment: HIV-1 infectivity enhancement assay, β-galactosidase luminescence; format: cell-based; settings: for Rel-EFC: infection relative to EF-C (QCKIKQIINMWQ = 1); for Log10 Infection Rel EFC: log10 of infection relative to EF-C; for Log Infectivity: Log10 infection relative to EF-C, TZM-bl cells, asymmetric std dev errors; for Log10 Infection Rel EF-C: HIV-1 infection of TZM-bl cells; for Abs. Inf.: absolute infection signal, HIV-1 on TZM-bl cells, β-galactosidase luminescence; for Log10 Inf. rel. to EF-C: log10 of HIV-1 infection of TZM-bl cells relative to EF-C (EF-C = 0); for Log10 of Rel to EFC (Feb2021): Log10 of infection relative to EF-C, all peptides of FigS16
[4] = β-sheet content by ATR-FT-IR; format: physicochemical; settings: for b -sheet / %: Fig. S7 panel A, β-sheet content by ATR-FT-IR
Procedure, shortened: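 Measurements on freeze-dried PNF powders used a diamond ATR element, 64 scans each, with β-sheet fraction derived as previously reported. CR reflects loss of fluorescamine-reactive monomer after 3 kDa ultrafiltration, averaged over triplicates.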

[5] = Zeta-potential measurement; format: physicochemical
Procedure, shortened: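 Dissolve peptide from DMSO (10 mg/mL stock) into PBS pH 7.4 to 1 mg/mL. Incubate 1 d, RT. Dilute in 1 mM KCl just before reading. Derive zeta potential from mobility (Smoluchowski).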

[6] = Log10 of derived count rate of scattered light (turbidity)
[7] = turbidity, Log10 of derived count rate of scattered light, Figure 3A source data
[8] = turbidity, log10 of derived count rate of scattered light
[9] = Fig. S7 panel A (plotted against β-sheet content)
[10] = Fig. S7 panel B (plotted against CR), rounded to two decimals
[11] = Log10 of infection rate relative to EF-C, Figure 3A source data
[12] = infection rate relative to EF-C, log10, data of Figure 2D
[13] = infection rate relative to EF-C, log10, source data of Figure 2C
[14] = zeta-potential of peptide, source data of Figure 2C
[15] = zeta-potential of the peptide assemblies, mean, Figure 3A source data
[16] = logarithm of count rate in kcps
[17] = zeta potential of peptide assemblies

Row | Substance | Log10 Count Rate [1, 6] | Count Rate / kcps [1] [kcps] | Log10 Count Rate [1, 7] | Log10 Count Rate [1, 8] | Count Rate [2] | Log10 Count Rate [2] | Rel-EFC ([3]; 1.3 µM peptide) | Log10 Infection Rel EFC ([3]; 1.3 µM peptide) | Log Infectivity [3, 9] | Log Infectivity [3, 10] | Log10 Infection Rel EF-C [3, 11] | Log10 Infection Rel EF-C [3, 12] | Log10 Infection Rel EF-C [3, 13] | Abs. Inf. [3] | Log10 Inf. rel. to EF-C [3] | b -sheet / % [4] [%] | Zeta-Pot. [5] | Zeta-Potential / mV [5, 14] [mV] | Zeta-Potential / mV [5, 15] [mV] | further results
1 | RLRLTLC | 2.0991 | 126 | 2.0991 | 2.0991 | 125.6 | 2.0991 | 0,05 | -1,29 | -1.288 | -1.29 | -1.29 | -1.288 | -1.288 | 1334 | -1.288 | 20.6858 | 19.67 | 20.73 | 19.67 | –
2 | KIKIQIN | 1.638 | 43 | 1.638 | 1.638 | 43.43 | 1.638 | 0,27 | -0,58 | -0.5766 | – | -0.58 | -0.5766 | -0.5766 | – | -0.5766 | 41.82 | – | 4.4 | 3.34 | Log10 Count Rate [1, 16]: 1.638; Log10 of Rel to EFC (Feb2021) [3]: -0.58; Zeta-Pot. [5, 17]: 3.34
3 | NMWQKIKQII | 2.992 | 982 | 2.992 | 2.992 | 982.4 | 2.992 | 0,03 | -1,6 | -1.5971 | – | -1.6 | -1.5971 | -1.5971 | 283.3 | -1.5971 | 38.14 | -0.213 | 2.325 | -0.21 | –
4 | QCKAKAQA | 3.12 | 1319 | 3.12 | 3.12 | 1319.1 | 3.12 | 0,03 | -1,6 | -1.598 | – | -1.6 | -1.598 | -1.598 | 806.7 | -1.598 | 34.06 | 0.674 | 0.4918 | 0.67 | –
5 | CKFKFQFNMWQ | 2.154 | 143 | 2.154 | 2.154 | 142.5 | 2.154 | 1,16 | 0,06 | 0.06446 | 0.06 | 0.06 | 0.06446 | 0.06446 | 26320 | 0.06446 | 47.05 | 17.03 | 15.58 | 17.03 | Log10 of Rel to EFC (Feb2021) [3]: 0.06
6 | KIRGKFEKED | 2.331 | 214 | 2.331 | 2.331 | 214.4 | 2.331 | 0,06 | -1,24 | -1.2355 | – | -1.24 | -1.2355 | -1.2355 | 643.3 | -1.2355 | 28.67 | -12.7 | -7.197 | -12.7 | –
7 | HGEHGEHGE | 2.532 | 340 | 2.532 | 2.532 | 340.4 | 2.532 | 0,02 | -1,72 | -1.72 | -1.72 | -1.72 | -1.72 | -1.72 | 360 | -1.72 | 6.271 | -24.2 | -14.63 | -24.2 | –
8 | KVKVKVQV | 1.975 | 94 | 1.975 | 1.975 | 94.37 | 1.975 | 0,02 | -1,76 | -1.763 | – | -1.76 | -1.763 | -1.763 | 466.7 | -1.763 | 43.06 | -3.41 | -0.6533 | -3.41 | –
9 | KIKIQINMAQ | 3.768 | 5859 | 3.768 | 3.768 | 5859 | 3.768 | 0,21 | -0,67 | -0.6722 | – | -0.67 | -0.6722 | -0.6722 | – | -0.6722 | 45.78 | – | 6.27 | 3.07 | Log10 of Rel to EFC (Feb2021) [3]: -0.67; Zeta-Pot. [5, 17]: 3.07
10 | KAKAQANMWQ | 1.749 | 56 | 1.749 | 1.749 | 56.17 | 1.749 | 0,01 | -2,15 | -2.146 | -2.15 | -2.15 | -2.146 | -2.146 | 193.3 | -2.146 | 42.81 | -19.63 | -14.675 | -19.63 | Log10 Count Rate [1, 16]: 1.7; Inf. rel. EF-C ([3]; HIV-1 infection relative to EF-C, Fig 23 plot, panels A and B, mean of 3 values): 0.008469; Inf. rel. EF-C ([3]; HIV-1 infection relative to EF-C, Fig 23 plot, single data point, replicate 1): 0.01122; Inf. rel. EF-C ([3]; HIV-1 infection relative to EF-C, Fig 23 plot, single data point, replicate 2): 0.003015; Inf. rel. EF-C ([3]; HIV-1 infection relative to EF-C, Fig 23 plot, single data point, replicate 3): 0.01117; Abs. Inf. / RLU s-1 ([3]; absolute infection rate, peptide 1.3 µM on cells, virus preincubated 10 min with fibrils, read 3 days post infection, mean of triplicate): 193 RLU s-1; Inf. rel. EF-C ([3]; n-fold infection vs virus only, relative to that of EF-C, 1.3 µM peptide): 0.01; ß-sheet / % ([4]; ATR-FT-IR of lyophilised 1 mg/mL PNF solution, peak integral ratio 1625-1635 cm-1, measured once): 43%; Zeta pot. / mV ([5]; 1 mg/mL in PBS pH 7.4 from 10 mg/mL DMSO stock, 1 d RT, 60 µL diluted in 600 µL 1 mM KCl, Zetasizer Nano ZS, Smoluchowski, mean of triplicate): -19.6 mV
11 | CKFC | 2.371 | 235 | 2.371 | 2.371 | 235.1 | 2.371 | 0,01 | -1,96 | -1.959 | -1.96 | -1.96 | -1.959 | -1.959 | 240 | -1.959 | 38.87 | -19.89 | -2.077 | -19.89 | –
